Consider ten compounds from patent publication US20190375708A1 (VenatoRx Pharmaceuticals, Inc., priority 2018, published 2019).

pEC50: −log10 of the molar value. A value given as a limit tells only on which side of the number the result lay.

The nature of data set [1]: In vitro cytotoxicity assay (MTT cell viability) in HepG2 cells. Format: cell-based, human. The conditions noted are these: human. The essentials:
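CC50 values reflect loss of HepG2 viability after a 7-day exposure at 37 °C, 5% CO2. After 3-4 h with MTT, solubilized formazan was quantified at 492 nm relative to vehicle wells.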

The test system of data set [2] is HBV replication in HepAD38 cells. The data set can be described thus: Anti-HBV replication assay in HepAD38 cells (QPCR of extracellular HBV DNA). Type of data set: cell-based, HBV (genotype D, serotype ayw). The conditions noted are these: Hepatitis B virus, 168 h, 7 days incubation, extracellular HBV DNA by QPCR, read-out: Anti-HBV EC50. The essentials: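 HepAD38 cells (HepG2 carrying a tet-repressible HBV genotype D genome) were seeded in tetracycline-free medium and treated next day with compound […] for 7 days. Supernatant HBV DNA was measured by QPCR against a standard curve; EC50 came from 4-parameter fits of inhibition versus DMSO control.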

As for `Cc1cc(NC(=O)c2c(C)c(C(=O)C(=O)N[C@@H](C(N)=O)C3CCCCC3)n(C)c2C)ccc1F` [Example 102, (R)-5-(2-((2-amino-1-cyclohexyl-2-oxoethyl)amino)-2-oxoacetyl)-N-(4-fluoro-3-methylphenyl)-1,2,4-trimethyl-1H-pyrrole-3-carboxamide], the CC50 at 7 days in data set [1] lay in the range of 0.5 to 4.99 µM. For the same compound, in data set [2], the negative-log EC50 (pEC50) is above 7.30.

In data set [1], `Cc1cc(NC(=O)c2c(C)c(C(=O)C(=O)N[C@@H](CO)[C@H](C)O)n(C)c2C)ccc1F` [Example 103, 5-(2-(((2S,3S)-1,3-dihydroxybutan-2-yl)amino)-2-oxoacetyl)-N-(4-fluoro-3-methylphenyl)-1,2,4-trimethyl-1H-pyrrole-3-carboxamide] had a 50% cytotoxic concentration (CC50) at 7 days above 30 µM. For the same compound, the pEC50 in data set [2] was above 7.30.

In data set [1], `CNC(=O)C1(NC(=O)C(=O)c2c(C)c(C(=O)Nc3ccc(F)c(C)c3)c(C)n2C)CC(F)(F)C1` [Example 104, 5-(2-((3,3-difluoro-1-(methylcarbamoyl)cyclobutyl)amino)-2-oxoacetyl)-N-(4-fluoro-3-methylphenyl)-1,2,4-trimethyl-1H-pyrrole-3-carboxamide] had a CC50 at 7 days above 30 µM. In data set [2], the pEC50 was above 7.30.

The compound `Cc1cc(NC(=O)c2c(C)c(C(=O)C(=O)N[C@@H](C(N)=O)C(C)C)n(C)c2C)ccc1F` [Example 105, (R)-5-(2-((1-amino-3-methyl-1-oxobutan-2-yl)amino)-2-oxoacetyl)-N-(4-fluoro-3-methylphenyl)-1,2,4-trimethyl-1H-pyrrole-3-carboxamide] displayed a CC50 at 7 days in data set [1] of 5 to 30 µM. In data set [2], the pEC50 was above 7.30.

In data set [1], `CNC(=O)[C@H](NC(=O)C(=O)c1c(C)c(C(=O)Nc2ccc(F)c(C)c2)c(C)n1C)C(C)C` [Example 106, (R)-N-(4-fluoro-3-methylphenyl)-1,2,4-trimethyl-5-(2-((3-methyl-1-(methylamino)-1-oxobutan-2-yl)amino)-2-oxoacetyl)-1H-pyrrole-3-carboxamide] came in with a 50% cytotoxic concentration (CC50) at 7 days of 0.5 to 4.99 µM. For the same compound, the pEC50 in data set [2] was above 7.30.

Turning to `Cc1cc(NC(=O)c2c(C)c(C(=O)C(=O)N[C@H](C(N)=O)C(C)C)n(C)c2C)ccc1F` [Example 107, (S)-5-(2-((1-amino-3-methyl-1-oxobutan-2-yl)amino)-2-oxoacetyl)-N-(4-fluoro-3-methylphenyl)-1,2,4-trimethyl-1H-pyrrole-3-carboxamide], in data set [1], the CC50 at 7 days was above 30 µM. In addition, the pEC50 in data set [2] is above 7.30.

As to `CNC(=O)[C@@H](NC(=O)C(=O)c1c(C)c(C(=O)Nc2ccc(F)c(C)c2)c(C)n1C)C(C)C` [Example 108, (S)-N-(4-fluoro-3-methylphenyl)-1,2,4-trimethyl-5-(2-((3-methyl-1-(methylamino)-1-oxobutan-2-yl)amino)-2-oxoacetyl)-1H-pyrrole-3-carboxamide], the CC50 at 7 days in data set [1] is 0.5 to 4.99 µM. Besides, in data set [2], the pEC50 was above 7.30.

Compound `Cc1cc(NC(=O)c2c(C)c(C(=O)C(=O)NC3(C(F)(F)F)CCOCC3)n(C)c2C)ccc1F` [Example 109, N-(4-fluoro-3-methylphenyl)-1,2,4-trimethyl-5-(2-oxo-2-((4-(trifluoromethyl)tetrahydro-2H-pyran-4-yl)amino)acetyl)-1H-pyrrole-3-carboxamide] displayed a CC50 at 7 days in data set [1] above 30 µM. Besides, the pEC50 in data set [2] was above 7.30.

Take `Cc1c(C(=O)Nc2ccc(F)nc2)c(C)n(C)c1C(=O)C(=O)NC1(C(F)(F)F)CCOCC1` [Example 110, N-(6-fluoropyridin-3-yl)-1,2,4-trimethyl-5-(2-oxo-2-((4-(trifluoromethyl)tetrahydro-2H-pyran-4-yl)amino)acetyl)-1H-pyrrole-3-carboxamide]: the CC50 at 7 days in data set [1] was above 30 µM. Further, the pEC50 in data set [2] is above 7.30.

In turn, `Cc1cc(NC(=O)c2c(C)c(C(=O)C(=O)NCc3csc(N)n3)n(C)c2C)ccc1F` [Example 111, 5-(2-(((2-aminothiazol-4-yl)methyl)amino)-2-oxoacetyl)-N-(4-fluoro-3-methylphenyl)-1,2,4-trimethyl-1H-pyrrole-3-carboxamide] returned a cytotoxic concentration (CC50) at 7 days in data set [1] above 30 µM. Also, in data set [2], the pEC50 was above 7.30.
